According to ChEMBL document CHEMBL1201862, “PubChem BioAssay data set” (2004):
Active and inactive are the calls of the source.

Tests used:
Format in all cases: functional
[1] = biological target: T1, Protein RecA (Mycobacterium tuberculosis, UniProt P9WHJ3); assay: Fluorescence Cell-Free Homogeneous Dose Retest to Identify Inhibitors of RecA-Intein Splicing Activity. [Related pubchem assays (depositor defined):AID2097, AID2223, AID489010, AID492950]
T1 sequence (P9WHJ3 whole entry): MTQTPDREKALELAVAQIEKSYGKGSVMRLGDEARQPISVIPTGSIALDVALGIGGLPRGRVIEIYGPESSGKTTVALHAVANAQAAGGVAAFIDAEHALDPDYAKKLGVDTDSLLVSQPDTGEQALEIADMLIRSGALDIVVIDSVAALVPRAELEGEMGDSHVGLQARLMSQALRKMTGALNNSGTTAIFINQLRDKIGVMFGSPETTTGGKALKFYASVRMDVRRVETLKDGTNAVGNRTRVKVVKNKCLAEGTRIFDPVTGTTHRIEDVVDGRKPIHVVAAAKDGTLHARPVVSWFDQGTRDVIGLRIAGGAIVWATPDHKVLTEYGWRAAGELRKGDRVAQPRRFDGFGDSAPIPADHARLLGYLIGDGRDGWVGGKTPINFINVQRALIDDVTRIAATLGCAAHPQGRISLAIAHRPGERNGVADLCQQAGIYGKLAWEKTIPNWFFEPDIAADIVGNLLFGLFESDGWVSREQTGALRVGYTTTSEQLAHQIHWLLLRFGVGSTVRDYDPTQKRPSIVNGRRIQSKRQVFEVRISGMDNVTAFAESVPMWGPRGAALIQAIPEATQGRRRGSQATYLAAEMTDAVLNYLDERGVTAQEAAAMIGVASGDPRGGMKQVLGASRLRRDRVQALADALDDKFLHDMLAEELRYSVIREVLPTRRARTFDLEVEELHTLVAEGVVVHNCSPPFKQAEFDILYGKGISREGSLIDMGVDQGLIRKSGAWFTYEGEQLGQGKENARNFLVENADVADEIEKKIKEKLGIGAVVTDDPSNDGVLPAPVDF

[2] = biological target: T2, Sentrin-specific protease 7 (Homo sapiens, UniProt Q9BQF6);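 also: Luminescence-based dose-response confirmation of ultra-high-throughput screening hits, measuring inhibition of SENP7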
T2 sequence (Q9BQF6 whole entry): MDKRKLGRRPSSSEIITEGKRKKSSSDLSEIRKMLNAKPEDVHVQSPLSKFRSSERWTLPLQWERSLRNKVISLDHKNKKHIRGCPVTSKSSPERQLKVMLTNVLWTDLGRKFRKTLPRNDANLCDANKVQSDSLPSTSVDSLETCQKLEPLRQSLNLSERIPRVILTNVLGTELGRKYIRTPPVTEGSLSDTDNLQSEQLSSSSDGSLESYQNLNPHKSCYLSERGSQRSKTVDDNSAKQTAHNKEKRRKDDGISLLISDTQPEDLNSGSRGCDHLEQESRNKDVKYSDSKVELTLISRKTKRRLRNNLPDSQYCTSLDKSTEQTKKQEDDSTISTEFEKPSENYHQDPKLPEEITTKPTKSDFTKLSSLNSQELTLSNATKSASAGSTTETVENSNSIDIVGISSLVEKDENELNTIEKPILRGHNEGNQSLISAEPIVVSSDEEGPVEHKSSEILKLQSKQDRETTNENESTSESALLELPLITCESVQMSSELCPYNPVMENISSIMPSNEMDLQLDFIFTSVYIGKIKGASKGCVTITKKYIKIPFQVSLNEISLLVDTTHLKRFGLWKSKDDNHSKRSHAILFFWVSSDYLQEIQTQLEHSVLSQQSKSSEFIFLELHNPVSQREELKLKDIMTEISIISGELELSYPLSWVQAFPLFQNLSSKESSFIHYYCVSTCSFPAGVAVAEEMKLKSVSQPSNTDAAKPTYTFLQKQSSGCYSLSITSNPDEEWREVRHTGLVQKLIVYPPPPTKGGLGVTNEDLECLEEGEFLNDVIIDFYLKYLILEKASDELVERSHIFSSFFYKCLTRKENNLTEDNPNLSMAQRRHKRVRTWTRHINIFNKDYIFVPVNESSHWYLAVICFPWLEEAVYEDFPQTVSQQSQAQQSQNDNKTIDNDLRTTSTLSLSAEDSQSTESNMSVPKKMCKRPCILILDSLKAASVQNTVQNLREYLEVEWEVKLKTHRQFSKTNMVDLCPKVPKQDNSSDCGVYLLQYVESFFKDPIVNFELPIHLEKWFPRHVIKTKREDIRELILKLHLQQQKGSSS

[3] = biological target: Casein kinase I isoform gamma-1 (Homo sapiens, UniProt Q9HCP0);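 also: measured as the CSNK1G1 member of a kinome profiling panel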
Casein kinase I isoform gamma-1, sequence (Q9HCP0 whole entry, canonical isoform): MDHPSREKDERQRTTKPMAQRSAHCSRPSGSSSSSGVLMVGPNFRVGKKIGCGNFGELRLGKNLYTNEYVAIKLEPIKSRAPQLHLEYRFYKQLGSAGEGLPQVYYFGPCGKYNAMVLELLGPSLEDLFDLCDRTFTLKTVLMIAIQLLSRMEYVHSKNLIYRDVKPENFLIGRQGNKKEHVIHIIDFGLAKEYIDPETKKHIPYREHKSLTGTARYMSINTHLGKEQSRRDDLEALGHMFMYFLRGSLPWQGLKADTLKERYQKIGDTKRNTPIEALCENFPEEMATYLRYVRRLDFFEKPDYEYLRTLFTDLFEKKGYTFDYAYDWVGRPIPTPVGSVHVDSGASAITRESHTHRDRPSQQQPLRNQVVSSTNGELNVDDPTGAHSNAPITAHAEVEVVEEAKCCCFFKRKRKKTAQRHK

[4] = biological target: Serine/threonine-protein kinase D2 (Homo sapiens, UniProt Q9BZL6);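 also: measured against PRKD2 as one member of a kinome-wide kinase profiling panel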
Serine/threonine-protein kinase D2, sequence (Q9BZL6 whole entry): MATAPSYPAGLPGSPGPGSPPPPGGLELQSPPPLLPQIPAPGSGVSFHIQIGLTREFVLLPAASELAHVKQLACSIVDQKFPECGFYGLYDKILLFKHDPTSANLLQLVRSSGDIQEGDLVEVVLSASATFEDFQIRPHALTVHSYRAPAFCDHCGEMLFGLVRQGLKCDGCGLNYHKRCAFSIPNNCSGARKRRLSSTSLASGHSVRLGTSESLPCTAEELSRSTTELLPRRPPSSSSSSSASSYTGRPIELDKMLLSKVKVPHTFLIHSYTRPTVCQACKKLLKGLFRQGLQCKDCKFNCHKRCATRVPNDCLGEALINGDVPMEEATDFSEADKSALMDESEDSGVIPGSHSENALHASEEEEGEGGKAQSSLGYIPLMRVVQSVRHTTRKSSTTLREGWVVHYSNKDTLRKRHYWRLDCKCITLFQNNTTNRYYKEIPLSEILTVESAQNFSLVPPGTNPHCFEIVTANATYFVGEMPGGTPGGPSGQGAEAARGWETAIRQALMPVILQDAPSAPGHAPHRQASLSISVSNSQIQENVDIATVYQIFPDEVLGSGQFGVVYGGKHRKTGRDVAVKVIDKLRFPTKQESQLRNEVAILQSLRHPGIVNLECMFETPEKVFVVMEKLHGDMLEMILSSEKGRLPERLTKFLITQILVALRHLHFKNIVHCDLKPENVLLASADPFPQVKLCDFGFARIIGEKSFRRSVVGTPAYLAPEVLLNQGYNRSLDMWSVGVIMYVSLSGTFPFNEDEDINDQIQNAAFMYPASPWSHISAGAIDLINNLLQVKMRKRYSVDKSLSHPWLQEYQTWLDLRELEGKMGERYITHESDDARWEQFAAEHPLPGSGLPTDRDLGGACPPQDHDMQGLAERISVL

[5] = biological target: Megakaryocyte-associated tyrosine-protein kinase (Homo sapiens, UniProt P42679);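 also: affinity measured as one member of a kinase panel (Navigating the Kinome) against MATK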
Megakaryocyte-associated tyrosine-protein kinase, sequence (P42679 whole entry): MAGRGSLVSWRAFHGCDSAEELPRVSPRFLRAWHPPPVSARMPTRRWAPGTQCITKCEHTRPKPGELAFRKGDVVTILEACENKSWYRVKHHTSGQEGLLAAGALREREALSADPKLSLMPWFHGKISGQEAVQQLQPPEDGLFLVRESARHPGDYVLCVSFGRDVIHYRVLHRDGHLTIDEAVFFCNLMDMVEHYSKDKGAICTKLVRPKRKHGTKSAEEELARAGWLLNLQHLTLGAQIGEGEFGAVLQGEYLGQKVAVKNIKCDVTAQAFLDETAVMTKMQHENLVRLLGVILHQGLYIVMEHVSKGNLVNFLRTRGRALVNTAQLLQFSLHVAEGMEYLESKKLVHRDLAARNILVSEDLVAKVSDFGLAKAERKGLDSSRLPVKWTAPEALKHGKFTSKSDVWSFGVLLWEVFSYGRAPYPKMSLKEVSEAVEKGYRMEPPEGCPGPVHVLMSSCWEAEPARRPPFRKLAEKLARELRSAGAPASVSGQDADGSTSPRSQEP

Structure (SMILES) | EC50 [1] | IC50 [2] | Ki [3] | Ki [4] | Ki [5]
OCC[n+]1c2ccccc2nc2ccc(N3CCOCC3)cc21 | > 120000 nM (inconclusive) | 28000 nM (active) |  |  | 
CS(=O)(=O)N(Cc1ccc2[nH]c(=O)c3cccn3c2c1)C1CC1 |  |  | 631 nM (active) | 200 nM (active) | 79.4 nM (active)
